Results reported in ChEMBL document CHEMBL1150010, “Inhibition of cartilage degradation by isothiazoloquinolinones” (Bioorg Med Chem Lett, 1994).

Organism: Bos taurus
Experiment: In vitro inhibition of IL1-beta (interleukin-1-beta) induced degradation of bovine nasal cartilage in an organ culture assay at 30 uM
Format: functional

Compound | inhibition at 30 µM [%]
COc1cccc2c(=O)cc3c4ccccc4sn3c12 | 74
O=c1cc2c3ccccc3sn2c2ccc(Cl)cc12 | 84
COc1cc2c(=O)cc3c4ccccc4sn3c2c(OC)c1OC | 80
COc1cccc2c1sn1c3ccccc3c(=O)cc21 | 30

Organism: Bos taurus
Experiment: In vitro inhibition of IL1-beta (interleukin-1-beta) induced degradation of bovine nasal cartilage in an organ culture assay
Format: functional

IC50 [µM] | Compound
22 | O=c1cc2c3cccnc3sn2c2ccccc12
8 | O=c1cc2c3ccccc3sn2c2ccccc12
